In patent publication US20250034173A1, “PYRIDO[4,3-D]PYRIMIDINE COMPOUNDS” (PFIZER INC., priority 2023, published 2025):

Tests used:
[1] = tested on: H358 (non-small cell lung cancer cell line); experiment: KRAS Cell Titer Glo (CTG) cell proliferation assay, H358; type: cell-based; conditions: Homo sapiens, NCI-H358, 168 h; H358 cells, 7-day CTG, geomean IC50
Summary of the method: (§1)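 Compounds pre-dispensed in 0.1% DMSO before seeding H358 (300 cells/well), SW620 (750) or PANC08.13 (600); 7-day exposure at 37 °C, 5% CO2. Viability by CellTiter-Glo luminescence after 15 min at room temperature. Percent effect normalised to DMSO (0%) and 1 uM trametinib (100%); geomean IC50.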

[2] = tested on: SW620 (colorectal cancer cell line); experiment: KRAS Cell Titer Glo (CTG) cell proliferation assay, SW620; type: cell-based; conditions: Homo sapiens, SW-620, 168 h; SW620 cells, 7-day CTG, geomean IC50
Summary of the method: as §1

KRAS G12C = KRAS G12C (Homo sapiens (Human), UniProt P01116, G12C); experiment: SPR binding affinity and kinetics, GTPγS-loaded KRAS G12C; conditions: GTPγS loaded protein, geomean
Chain of KRAS G12C (P01116 other isoform, or with tags, fused parts or gaps G12C): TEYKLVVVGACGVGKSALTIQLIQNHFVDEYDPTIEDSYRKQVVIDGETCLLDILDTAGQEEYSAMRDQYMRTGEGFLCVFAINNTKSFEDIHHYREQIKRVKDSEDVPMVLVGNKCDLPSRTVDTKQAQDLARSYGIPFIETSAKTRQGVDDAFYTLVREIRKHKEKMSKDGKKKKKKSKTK
Summary of the method: (§2)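 No additional regeneration is used in these SPR runs, and compound off-rate monitoring lasts at least 3600 seconds.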

[3] = tested on: PANC08.13 (pancreatic cancer cell line); experiment: KRAS Cell Titer Glo (CTG) cell proliferation assay, PANC08.13; type: cell-based; conditions: Homo sapiens, PANC-08-13, 168 h; PANC08.13 cells, 7-day CTG, geomean IC50
Summary of the method: as §1

NRAS Wild Type = NRAS Wild Type (Homo sapiens (Human), UniProt P01111); experiment: SPR binding affinity and kinetics, GTPγS-loaded NRAS Wild Type; conditions: GTPγS loaded protein, geomean
Chain of NRAS Wild Type (P01111 2-185): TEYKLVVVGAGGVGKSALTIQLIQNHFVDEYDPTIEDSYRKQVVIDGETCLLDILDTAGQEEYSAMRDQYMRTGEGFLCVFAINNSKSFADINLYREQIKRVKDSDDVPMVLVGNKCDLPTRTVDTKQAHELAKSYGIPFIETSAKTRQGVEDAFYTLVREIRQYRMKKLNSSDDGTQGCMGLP
Description: (§3) No additional regeneration was used.
(§4) Compound dissociation was monitored for at least 3600 seconds. […] No additional regeneration was used.
(§5) The adequateness of the fit was judged by c2 values and the randomness of residue distribution.

HRAS Wild Type = HRAS Wild Type (Homo sapiens (Human), UniProt P01112); experiment: SPR binding affinity and kinetics, GTPγS-loaded HRAS Wild Type; conditions: GTPγS loaded protein, geomean
Chain of HRAS Wild Type (P01112 2-184): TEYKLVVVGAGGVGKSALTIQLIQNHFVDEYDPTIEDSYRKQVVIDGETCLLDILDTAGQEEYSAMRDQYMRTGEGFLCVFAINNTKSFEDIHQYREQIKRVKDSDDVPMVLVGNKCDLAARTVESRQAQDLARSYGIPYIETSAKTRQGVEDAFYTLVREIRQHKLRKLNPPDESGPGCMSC
Description: as §3, §4, §5

KRAS Wild Type = KRAS Wild Type (Homo sapiens (Human), UniProt P01116); experiment: SPR binding affinity and kinetics, GTPγS-loaded KRAS Wild Type; conditions: GTPγS loaded protein, geomean
Chain of KRAS Wild Type (P01116 other isoform, or with tags, fused parts or gaps): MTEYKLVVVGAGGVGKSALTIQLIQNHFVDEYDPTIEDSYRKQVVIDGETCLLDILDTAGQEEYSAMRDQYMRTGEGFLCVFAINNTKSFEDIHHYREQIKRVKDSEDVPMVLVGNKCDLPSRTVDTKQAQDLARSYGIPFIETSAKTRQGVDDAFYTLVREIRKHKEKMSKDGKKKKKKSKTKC
Summary of the method: as §2

KRAS G12D = KRAS G12D (Homo sapiens (Human), UniProt P01116, G12D); experiment: SPR binding affinity and kinetics, GTPγS-loaded KRAS G12D; conditions: GTPγS loaded protein, geomean
Chain of KRAS G12D (P01116 other isoform, or with tags, fused parts or gaps G12D): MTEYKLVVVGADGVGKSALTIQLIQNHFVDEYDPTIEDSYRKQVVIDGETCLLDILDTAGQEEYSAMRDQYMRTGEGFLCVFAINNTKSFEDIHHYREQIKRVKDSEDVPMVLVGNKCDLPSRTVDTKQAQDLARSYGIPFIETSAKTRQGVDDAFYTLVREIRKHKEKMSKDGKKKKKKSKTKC
Summary of the method: as §2

KRAS G12V = KRAS G12V (Homo sapiens (Human), UniProt P01116, G12V); experiment: SPR binding affinity and kinetics, GTPγS-loaded KRAS G12V; conditions: GTPγS loaded protein, geomean
Chain of KRAS G12V (P01116 other isoform, or with tags, fused parts or gaps G12V): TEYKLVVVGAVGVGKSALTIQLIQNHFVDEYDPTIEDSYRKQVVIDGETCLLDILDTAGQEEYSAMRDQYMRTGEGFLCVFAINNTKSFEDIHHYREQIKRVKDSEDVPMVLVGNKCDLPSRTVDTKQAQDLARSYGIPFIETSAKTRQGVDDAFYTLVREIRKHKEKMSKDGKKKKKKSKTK
Summary of the method: as §2

| SMILES | IC50 [1] [nM] | IC50 [2] [nM] | Kd (KRAS G12C) [nM] | IC50 [3] [nM] | Kd (NRAS Wild Type) [nM] | Kd (HRAS Wild Type) [nM] | Kd (KRAS Wild Type) [nM] | Kd (KRAS G12D) [nM] | Kd (KRAS G12V) [nM] |
| --- | --- | --- | --- | --- | --- | --- | --- | --- | --- |
| C=C1CN2CCC[C@@]2(COc2nc3c4c(nc(-c5c(C6CC6)c(Cl)cc6[nH]ncc56)c(F)c4n2)OC[C@@H]2CCCCN32)C1 [Example 21, (8aS)-5-(6-chloro-5-cyclopropyl-1H-indazol-4-yl)-4-fluoro-2-{[(7aS)-2-methylidenetetrahydro-1H-pyrrolizin-7a(5H)-yl]methoxy}-8,8a,9,10,11,12-hexahydro-7-oxa-1,3,6,12a-tetraazabenzo[4,5]cyclohepta[1,2,3-de]naphthalene] | 381 | 268 | 14 | 8 | > 10000 | > 10000 | 31 | 21 | 15 |
| C=C1CN2CCC[C@@]2(COc2nc3c4c(nc(-c5c(C6CC6)c(Cl)cc6[nH]ncc56)c(F)c4n2)OC[C@@H]2CC[C@H](O)CN32)C1 [Example 23, (8aS,11S)-5-(6-chloro-5-cyclopropyl-1H-indazol-4-yl)-4-fluoro-2-{[(7aS)-2-methylidenetetrahydro-1H-pyrrolizin-7a(5H)-yl]methoxy}-8,8a,9,10,11,12-hexahydro-7-oxa-1,3,6,12a-tetraazabenzo[4,5]cyclohepta[1,2,3-de]naphthalen-11-ol] | 102 | 156 | 3 | 3 | > 10000 | > 10000 | 3 | 3 | 2 |
| C=C1CN2CCC[C@@]2(COc2nc3c4c(nc(-c5c(C(C)C)c(Cl)cc6[nH]ncc56)c(F)c4n2)OC[C@@H]2COCCCN32)C1 [Example 24, (8aS)-5-[6-chloro-5-(propan-2-yl)-1H-indazol-4-yl]-4-fluoro-2-{[(7aS)-2-methylidenetetrahydro-1H-pyrrolizin-7a(5H)-yl]methoxy}-8a,9,12,13-tetrahydro-8H,11H-7,10-dioxa-1,3,6,13a-tetraazanaphtho[1,8-ab]heptalene] | 45 | 18 | 4 | 6 | > 10000 | > 10000 | 7 | 5 | 5 |
| C=C1CN2CCC[C@@]2(COc2nc3c4c(nc(-c5c(C6(C)CC6)c(Cl)cc6[nH]ncc56)c(F)c4n2)OC[C@@H]2COCCCN32)C1 [Example 39, (8aS)-5-[6-chloro-5-(1-methylcyclopropyl)-1H-indazol-4-yl]-4-fluoro-2-{[(7aS)-2-methylidenetetrahydro-1H-pyrrolizin-7a(5H)-yl]methoxy}-8a,9,12,13-tetrahydro-8H,11H-7,10-dioxa-1,3,6,13a-tetraazanaphtho[1,8-ab]heptalene] | 10 | 7 | 2 | < 1 | > 10000 | > 10000 | 2 | 1 | 2 |
| C=C1CN2CCC[C@@]2(COc2nc3c4c(nc(-c5c(C6CC6)c(Cl)cc6[nH]nc(Cl)c56)c(F)c4n2)OC[C@@H]2COCCCN32)C1 [Example 46, (8aS)-5-(3,6-dichloro-5-cyclopropyl-1H-indazol-4-yl)-4-fluoro-2-{[(7aS)-2-methylidenetetrahydro-1H-pyrrolizin-7a(5H)-yl]methoxy}-8a,9,12,13-tetrahydro-8H,11H-7,10-dioxa-1,3,6,13a-tetraazanaphtho[1,8-ab]heptalene] | 15 | 45 | 3 | 5 | > 10000 | > 10000 | 4 | 3 | 4 |

Further lines, results first:

| IC50 [1] [nM] | IC50 [2] [nM] | Kd (KRAS G12C) [nM] | IC50 [3] [nM] | Kd (NRAS Wild Type) [nM] | Kd (HRAS Wild Type) [nM] | Kd (KRAS Wild Type) [nM] | Kd (KRAS G12D) [nM] | Kd (KRAS G12V) [nM] | SMILES |
| --- | --- | --- | --- | --- | --- | --- | --- | --- | --- |
| 17 | 16 | 1 | 2 | > 10000 | > 10000 | 2 | 1 | 1 | C/C=C1\CN2CCC[C@@]2(COc2nc3c4c(nc(-c5c(C6CC6)c(Cl)cc6[nH]ncc56)c(F)c4n2)OC[C@@H]2COCCCN32)C1 [Example 26, (8aS)-5-(6-chloro-5-cyclopropyl-1H-indazol-4-yl)-2-{[(2Z,7aS)-2-ethylidenetetrahydro-1H-pyrrolizin-7a(5H)-yl]methoxy}-4-fluoro-8a,9,12,13-tetrahydro-8H,11H-7,10-dioxa-1,3,6,13a-tetraazanaphtho[1,8-ab]heptalene] |
| 19 | 26 | 2 | 4 | > 10000 | > 10000 | 3 | 1 | 2 | COC/C=C1\CN2CCC[C@@]2(COc2nc3c4c(nc(-c5c(C6CC6)c(Cl)cc6[nH]ncc56)c(F)c4n2)OC[C@@H]2COCCCN32)C1 [Example 28, (8aS)-5-(6-chloro-5-cyclopropyl-1H-indazol-4-yl)-4-fluoro-2-{[(2Z,7aS)-2-(2-methoxyethylidene)tetrahydro-1H-pyrrolizin-7a(5H)-yl]methoxy}-8a,9,12,13-tetrahydro-8H,11H-7,10-dioxa-1,3,6,13a-tetraazanaphtho[1,8-ab]heptalene] |
| 4 | 8 | 1 | < 1 | > 10000 | > 10000 | 1 | 1 | 2 | C=C1CN2CCC[C@@]2(COc2nc3c4c(nc(-c5c6c(cc7[nH]ncc57)CCC[C@H]6C)c(F)c4n2)OC[C@@H]2COCCCN32)C1 [Example 29, (8aS)-4-fluoro-2-{[(7aS)-2-methylidenetetrahydro-1H-pyrrolizin-7a(5H)-yl]methoxy}-5-[(5R)-5-methyl-5,6,7,8-tetrahydro-1H-benzo[f]indazol-4-yl]-8a,9,12,13-tetrahydro-8H,11H-7,10-dioxa-1,3,6,13a-tetraazanaphtho[1,8-ab]heptalene] |
| 15 | 31 | 5 | 4 | > 10000 | > 10000 | 7 | 3 | 9 | C[C@@H]1CCCc2cc3[nH]ncc3c(-c3nc4c5c(nc(OC[C@@]67CCCN6C[C@H](F)C7)nc5c3F)N3CCCOC[C@H]3CO4)c21 [Example 36, (8aS)-4-fluoro-2-{[(2R,7aS)-2-fluorotetrahydro-1H-pyrrolizin-7a(5H)-yl]methoxy}-5-[(5R)-5-methyl-5,6,7,8-tetrahydro-1H-benzo[f]indazol-4-yl]-8a,9,12,13-tetrahydro-8H,11H-7,10-dioxa-1,3,6,13a-tetraazanaphtho[1,8-ab]heptalene] |
| 9 | 25 | 3 | 4 | > 10000 | > 10000 | 3 | 2 | 4 | COC/C=C1\CN2CCC[C@@]2(COc2nc3c4c(nc(-c5c6c(cc7[nH]ncc57)CCC[C@H]6C)c(F)c4n2)OC[C@@H]2COCCCN32)C1 [Example 37, (8aS)-4-fluoro-2-{[(2Z,7aS)-2-(2-methoxyethylidene)tetrahydro-1H-pyrrolizin-7a(5H)-yl]methoxy}-5-[(5R)-5-methyl-5,6,7,8-tetrahydro-1H-benzo[f]indazol-4-yl]-8a,9,12,13-tetrahydro-8H,11H-7,10-dioxa-1,3,6,13a-tetraazanaphtho[1,8-ab]heptalene] |
| 25 | 36 | 4 | 5 | > 10000 | > 10000 | 5 | 2 | 4 | Fc1c(-c2c(C3CC3)c(Cl)cc3[nH]ncc23)nc2c3c(nc(OC[C@@]45CCCN4CC(=C4COC4)C5)nc13)N1CCCOC[C@H]1CO2 [Example 41, (8aS)-5-(6-chloro-5-cyclopropyl-1H-indazol-4-yl)-4-fluoro-2-{[(7aS)-2-(oxetan-3-ylidene)tetrahydro-1H-pyrrolizin-7a(5H)-yl]methoxy}-8a,9,12,13-tetrahydro-8H,11H-7,10-dioxa-1,3,6,13a-tetraazanaphtho[1,8-ab]heptalene] |
| 14 | 11 | 4 | 10 | > 10000 | > 10000 | 3 | 2 | 4 | C[C@@H]1CCCc2cc3[nH]ncc3c(-c3nc4c5c(nc(OC[C@@]67CCCN6CC(=C6COC6)C7)nc5c3F)N3CCCOC[C@H]3CO4)c21 [Example 47, (8aS)-4-fluoro-5-[(5R)-5-methyl-5,6,7,8-tetrahydro-1H-benzo[f]indazol-4-yl]-2-{[(7aS)-2-(oxetan-3-ylidene)tetrahydro-1H-pyrrolizin-7a(5H)-yl]methoxy}-8a,9,12,13-tetrahydro-8H,11H-7,10-dioxa-1,3,6,13a-tetraazanaphtho[1,8-ab]heptalene] |
